Earlier results in patent publication US20140090255A1, “Skin Engaging Member Comprising At Least One Thermally Resilient Sensate” (The Gillette Company, priority 2012, published 2014).

Conditions: concentration where the cooling effect could be clearly recognized; Emberger and Hopp 1987

Row | SMILES | cooling threshold
1 | CC(C)[C@@H]1CC[C@@H](C)C[C@@H]1O [d-neomenthol] | about 25,000 ppb
2 | CC(C)[C@@H]1CC[C@@H](C)C[C@@H]1O [Example 1-neomenthol, 1-neomenthol] | about 3,000 ppb
3 | CC(C)[C@@H]1CC[C@@H](C)C[C@H]1O [L-menthol] | about 800 ppb
